# Experimental data: patent publication US4719297A, “Acylphosphine compounds and their use as photoinitiators” (priority 1981, dated 1988)
# Where two headings read alike, the source gives them in different places.
# Legend:
# [1] = Hardening rate of UV-exposed finish by Konig pendulum method (DIN 53,157) (Table 4); conditions: for Damping of pendulum: 2 parts photoinitiator
# Protocol: An unsaturated polyester was prepared by esterifying 143 parts of tetrahydrophthalic anhydride and 175 parts of maleic anhydride with 260 parts of diethylene glycol. 0.01% of hydroquinone was added, and thereafter a 64% strength solution of the polyester in styrene was prepared (solution D).
# For the UV hardening experiments, 10 parts of styrene and 2 parts of the photoinitiator were added to 100 parts of solution D, and the finish was applied to photographic paper on a hardboard base by means of a film spreader (slotwidth 200 μm)
# The film was dried in air for about 1 minute and then exposed to light from a 30 watt high pressure mercury vapor lamp of 1 cm arc length (Philips HTQ 7) located 15 cm above the object.
# The hardening rate was determined by the Konig pendulum method (DIN 53,157), and is given in Table 4 together with the color measurements carried out on the hardened films.
# The numbering scheme for the photoinitiators is based on that of Table 1 and Example 6.
# [2] = type: physicochemical; conditions: 80° C., closed ampoule
# Protocol: 294 parts of partially hydrolyzed polyvinyl acetate (degree of hydrolysis 82 mole %, average degree of polymerization 500) were dissolved in 294 parts of demineralized water at 90° C. by stirring the mixture for several hours. The solution was cooled to 70° C., and therafter 20 parts of 1,1,1-trimethylolpropane triacrylate, 1,0 part of 2,6-di-tert.-butyl-p-cresol and the amount of photoinitiator given in table 6, dissolved in 230 parts of 2-hydroxyethyl methacrylate, were added, with stirring. The homogeneous viscous solution was filtered, and dehydrated and degassed under reduced pressure. A 550 μm thick, nontacky layer was obtained by applying the solution onto steel sheet provided with an adhesive, and drying the layer for 24 hours at room temperature. The printing plate was pre-exposed for 2 seconds and thereafter exposed inagewise, through a negative, to light from a commercial 5 kW exposure unit for the times given in table 6.
# The thermal stability of the photosensitive solutions was determined by storing a sample in a closed ampoule at 80° C. In comparison with compound V, the novel photoinitiators improved the stability of the photosensitive mixture by a factor of 2 (see Table 6), with otherwise very similar behavior.
# [3] = Hardening activity of UP resin B under UV light, temperature/time curve (Table 2); conditions: 0.2% compound
# Protocol: (§1) To measure the hardening activity, the temperature curve for the unsaturated polyester resin (UP resin) was recorded during exposure to UV light. […] To avoid heat losses during the exposure to UV light, the lid was embedded in rigid expanded polyurethane foam. The UV light source used comprised 5 fluorescent tubes (TLAK 40 W/05 from Philips) side by side, at a distance of 8.5 cm from the UP resin surface.
# (§2) The hardening time HT25° C.-T.sbsb.max and the maximum hardening temperature Tmax achieved were obtained, as characteristic parameters for the hardening activity, from the recorded temperature/time curves. The hardening time is the interval in which the sample temperature increases from 25° C. to Tmax.
# (§3) The Examples and Comparative Examples were carried out using the following unsaturated polyester resins:
# Resin B was a 67% strength solution, in styrene, of an unsaturated polyester of maleic acid, tetrahydrophthalic acid and diethylene glycol in the molar ratio of 1:0.5:1.5, the solution being stabilized with 0.01% of hydroquinone.
# (§4) The hardening activity of the novel compounds 1 to 16 (cf. Table 1) was compared with the properties of the following compounds: […]
# [4] = Hardening activity of UP resin A under UV light, temperature/time curve (Table 2); conditions: 0.2% compound
# Protocol: as §1, §2, §3
# Resin A was a 65% strength solution, in styrene, of an unsaturated polyester of maleic acid, o-phthalic acid, ethylene glycol and propylene 1,2-glycol in the molar ratio of 1:2:2.3:0.70, the solution being stabilized with 0.01% of hydroquinone.
# as §4
# [5] = Hardening activity of UP resin C under UV light, temperature/time curve (Table 2); conditions: 0.2% compound
# Protocol: as §1, §2, §3
# Resin C was a 66% strength solution, in styrene, of an unsaturated polyester of maleic acid, o-phthalic acid and propylene 1,2-glycol in the molar ratio of 1:0.5:1.5, the solution being stabilized with 0.01% of hydroquinone.
# as §4
# [6] = Minimum exposure time for faultless reproduction of the 3% tonality on photopolymerizable printing plate (Table 7); conditions: 2 parts photoinitiator; UV about 3,300 μW/cm^2
# Protocol: 60 parts by weight of a 1:1:1 copolyamide consisting of PA-6, PA-6.6 and PA-6.13, 30 parts by weight of ethylene glycol bis-(N-methylolacrylamide) ether, 10 parts by weight of benzenesulfonic acid N-(n-butyl)-amide, 150 parts by weight of methanol, 20 parts by weight of water, 0.02 part by weight of a chromium complex dye (CI No. 12,195), 0.3 part by weight of potassium N-nitrosocyclohexylhydroxylamine and 2 parts by weight of the photoinitiator given in Table 7 were dissolved at about 70° C. The photopolymerizable material was brought to a solids content of about 65% by distilling off part of the solvent and was then cast, at 60° C., on to a strip of steel sheet provided with an adhesive, and drying was effected in a drying oven for about 2 hours at 80° C. The resulting photopolymerizable printing plate contained a 0.5 mm thick layer with a solids content of about 95%.
# Using a test negative which had, inter alia, 54 screen lines, per centimeter, of 3% tonality, the plate was exposed to a UV light intensity of about 3,300 μW/cm^2 on a flat-plate exposure unit equipped with superactinic fluorescent tubes. The unexposed parts of the plate which were protected from the UV light by the opaque image elements of the negative were then washed out in a spray washer for 5 minutes at 30° C. and under a spray pressure of 5 bar, using an ethanol/water mixture containing 80% of ethanol. The plate was thereafter dried for 6 minutes at 110° C. The minimum exposure time required for faultless reproduction of the 3% tonality was measured, and the results for various photoinitiators are summarized in Table 7.
# [7] = Shelf life of resins containing the compounds, overall comparison; type: physicochemical; conditions: Table 3, in words
# Protocol: (§5) To test the shelf life, 6.6 ml of each of the UP resins A, B and C (cf. Example 5) with an initiator content of 0.2% were introduced into brown sample bottles, and the closed bottles were stored at 60° C. At intervals of about 12 hours, the bottles were turned to determine whether gel particles had formed. As a measure of the shelf life, Table 3 gives the maximum storage time at which gel particles were still not observed.
# (§6) In addition to the comparative compounds I, II and III, compound V below was also tested: V 2,4,6-trimethylbenzoyldiphenylphosphine oxide as described in U.S. Pat. No. 4,265,723.
# [8] = Photopolymerization of monomer emulsion, properties of resulting polymer dispersions (Table 5); conditions: for Fikentscher K value / Residual monomers, ethyl acrylate / Residual monomers, methyl acrylate / Solids content: 60 min exposure
# Protocol: A monomer emulsion was prepared from 50 parts of methyl acrylate, 50 parts of ethyl acrylate, 1.3 parts of a 40% strength C15 -paraffin sulfonate, 1.3 parts of an adduct of isooctylphenol with 25 units of ethylene oxide (20% strength) and 210 parts of water in a conventional mixing unit.
# This emulsion was introduced into a 1 l glass flask provided with an internal thermometer and a stirrer, and was freed from oxygen by twice evacuating the flask and gassing the emulsion with nitrogen. X parts of the photoinitiator in 6.7 parts of water were added, and the reaction vessel was then exposed for 60 minutes to light from a high pressure mercury vapor lamp of Type HQL/R 400 W from Osram, located 30 cm above the vessel. The beginning of polymerization was evident from an increase in the temperature. The amounts of photoinitiator employed and the properties of the resulting polymer dispersions are summerized in Table 5, photoinitiator 4 (cf. Table 1) being compared with photoinitiator VI (described in U.S. Pat. No. 4.257,859).
# [9] = Shelf life of UP resin A containing a photoinitiator, stored at 60° C. (Table 3); type: physicochemical; conditions: 0.2% initiator, dark
# Protocol: as §5, §6
# (§7) The numbering scheme of the compounds in Table 3 is based on that of Table 1.
# [10] = Hardening activity in UP resins, overall comparison
# Protocol: as §1, §2, §3, §4
# [11] = Shelf life of UP resin B containing a photoinitiator, stored at 60° C. (Table 3); type: physicochemical; conditions: 0.2% initiator, dark
# Protocol: as §5, §6, §7
# [12] = Shelf life of UP resin C containing a photoinitiator, stored at 60° C. (Table 3); type: physicochemical; conditions: 0.2% initiator, dark
# Protocol: as §5, §6, §7
SMILES,Damping of pendulum ([1]; exposure time 5 s),Damping of pendulum ([1]; exposure time 10 s),Damping of pendulum ([1]; exposure time 15 s),Damping of pendulum ([1]; exposure time 20 s),Damping of pendulum ([1]; exposure time 25 s),hardening time HT 25°-Tmax [3],maximum hardening temperature Tmax [3] [°C],hardening time HT 25°-Tmax [4],maximum hardening temperature Tmax [4] [°C],hardening time HT 25°-Tmax [5],maximum hardening temperature Tmax [5] [°C],Minimum exposure time required for reproducing the 3% tonality [6] [s],Shelf life [9] [h],Shelf life [11] [h],Shelf life [12] [h],further results
"Cc1cc(C)c(C(=O)P(=O)(O)c2ccccc2)c(C)c1 [Compound 12, Methyldiethanolammonium 2,4,6-trimethylbenzoylphenylphosphinate]",71,92,112,122,130,5/08,129,6/15,116,5/23,123,,,,,"hardening activity compared with compound V ([1]; Table 4, in words): substantially more active hardener; Stability ([2]; 7 parts of compound): 28 h"
"Cc1cc(C)c(C(=O)P(=O)([O-])c2ccccc2)c(C)c1.[Na+] [Compound 4, Sodium 2,4,6-trimethylbenzoylphenylphosphinate]",,,,,,4/37,125,5/53,117,5/23,122,115,190,,,"Stability ([2]; 6 parts of compound): 34 h; shelf life of resins compared with compounds II, III and V [7]: substantially superior; shelf life of resins compared with resins containing I [7]: not significantly different; Fikentscher K value ([8]; 0.04 parts X employed): 156.8; Residual monomers, ethyl acrylate ([8]; 0.04 parts X employed): 0.019%; Residual monomers, methyl acrylate ([8]; 0.04 parts X employed): 0.051%; Solids content ([8]; 0.04 parts X employed): 31.3%; Fikentscher K value ([8]; 1.7 parts X employed): 146.6; Residual monomers, ethyl acrylate ([8]; 1.7 parts X employed): < 0.005%; Residual monomers, methyl acrylate ([8]; 1.7 parts X employed): 0.005%; Solids content ([8]; 1.7 parts X employed): 31.4%; activity compared with photoinitiator VI ([8]; same K value of dispersions, in words): higher activity; content of residual monomers compared with photoinitiator VI ([8]; same starting concentration, in words): substantially lower content of residual monomers; initiation of photopolymerization at very low starting concentrations ([8]; very low starting concentrations, in words): permits photopolymerization even at very low starting concentrations"
"COP(=O)([O-])C(C)=O.[Na+] [IV, monosodium monomethylacetylphosphonate, reference compound]",,,,,,,,13/15,30,,,,,,,"suitability for photohardening ([10]; Table 2, in words): unsuitable for photohardening; hardening outcome (footnote to Tmax) [4]: not hardened"
"COP(=O)(C(=O)c1c(C)cc(C)cc1C)c1ccccc1 (centres unmarked) [I, methyl 2,4,6-trimethybenzoylphenylphosphinate, reference compound]",,,,,,5/23,127,7/45,114,6/53,123,,180,155,180,"hardening activity compared with the novel compounds ([10]; see Example 5, in words): substantially less active hardener"
"Cc1cc(C)c(C(=O)P(=O)(c2ccccc2)c2ccccc2)c(C)c1 [V, 2,4,6-trimethylbenzoyldiphenylphosphine oxide, reference compound]",43,66,84,102,112,,,,,,,190,140,140,120,Stability ([2]; 4 parts of compound): 15 h
